From BindingDB's records for doi:10.1016/j.ejmech.2021.113764 (China Pharmaceutical University, 2021) come the findings set out here.

Structures are written as SMILES. Bounds are passed on as bounds.

A short description of one assay: Antagonist activity at PAR4 in ICR mouse platelet-rich plasma assessed as inhibition of PAR4 AP AYPGKF-NH2-induced platelet aggregation by photo-turbidimetry assay.
With `COCc1nc2cc(C)cc(-c3nn4cc(C)nc4s3)c2[nH]1`, the IC50 turned out to be 3.13 µM.

Consider `Cc1cc2c(c(-c3nn4ccnc4s3)c1)CCN(C)C2=O`, for which the IC50 was > 10 µM.

Regarding `Cc1cc2c(c(-c3nn4cc(C)nc4s3)c1)CCN(C)C2=O`, the IC50 stood at 8.7 µM.

For the molecule `Cc1cc(-c2nn3ccnc3s2)c2ccn(C)c(=O)c2c1`, the half-maximal inhibitory concentration (IC50) amounted to 3 µM.

Consider `Cc1cc(-c2nn3cc(C)nc3s2)c2ccn(C)c(=O)c2c1`, for which the IC50 was found to be 3.21 µM.

Regarding `COCc1cnc2c(-c3nc4c(Cl)cc(OC)cc4s3)cc(C)cc2n1`, the IC50 came to 0.79 µM.

`COCc1nc2cc(C)cc(-c3nc4c(Cl)cc(OC)cc4s3)c2[nH]1`: the IC50 worked out at 1.63 µM.

For `COc1cc(Cl)c2nc(-c3cc(C)cc4c3CCN(C)C4=O)sc2c1`, the 50% inhibitory concentration (IC50) turned out to be 1.84 µM.

As to `COc1cc(Cl)c2nc(-c3cc(C)cc4c(=O)n(C)ccc34)sc2c1`, the IC50 amounted to 0.98 µM.

For `Cc1cc(-c2ccc(Cl)cc2Cl)c2ncn(C)c(=O)c2c1`, the IC50 came out at 1.22 µM.

As to `COc1cc(F)c2nc(-c3cc(C)cc4c(=O)n(C)cnc34)sc2c1`, the half-maximal inhibitory concentration (IC50) came to 0.83 µM.

Take `Cc1cc(-c2nc3c(s2)CCCC3)c2ncn(C)c(=O)c2c1`: the half-maximal inhibitory concentration (IC50) turned out to be 0.11 µM.

Regarding `CCOCn1cnc2c(-c3nc4c(Cl)cc(OC)cc4s3)cc(C)cc2c1=O`, the IC50 is 0.65 µM.

Consider `Cc1cc(-c2nc3c(Cl)cc(OCCNS(=O)(=O)c4ccc(C(F)(F)F)cc4)cc3s2)c2ncn(C)c(=O)c2c1`, for which the IC50 was 0.17 µM.

For the molecule `Cc1cc(-c2ccccc2)c2ncn(C)c(=O)c2c1`, the concentration for half-maximal inhibition (IC50) was > 10 µM.

As for `Cc1ccc(-c2cc(C)cc3c(=O)n(C)cnc23)cc1`, the concentration for half-maximal inhibition (IC50) is > 10 µM.

As to `Cc1cc(-c2ccccc2C)c2ncn(C)c(=O)c2c1`, the IC50 is > 10 µM.

In the case of `COc1ccccc1-c1cc(C)cc2c(=O)n(C)cnc12`, the IC50 is 7.32 µM.

Turning to `Cc1cc(-c2ccccc2F)c2ncn(C)c(=O)c2c1`, the IC50 stood at 5.48 µM.

Take `Cc1cc(-c2ccc(F)cc2O)c2ncn(C)c(=O)c2c1`: the IC50 is > 10 µM.

With `Cc1cc(-c2cccc(Cl)c2Cl)c2ncn(C)c(=O)c2c1`, the half-inhibitory concentration (IC50) came out at 3.7 µM.

For `Cc1cc(-c2ccccc2C#N)c2ncn(C)c(=O)c2c1`, the half-maximal inhibitory concentration (IC50) was > 10 µM.

Take `Cc1cc(-c2cccnc2)c2ncn(C)c(=O)c2c1`: the IC50 is > 10 µM.

In the case of `Cc1cc(-c2nccs2)c2ncn(C)c(=O)c2c1`, the IC50 worked out at 3.64 µM.

As to `Cc1cc(-c2cccc3ccccc23)c2ncn(C)c(=O)c2c1`, the IC50 was > 10 µM.

`Cc1cc(-c2ccc3ccccc3n2)c2ncn(C)c(=O)c2c1`: the IC50 is > 10 µM.

In the case of `Cc1cc(-c2cc3ccccc3o2)c2ncn(C)c(=O)c2c1`, the IC50 turned out to be 4.26 µM.

As to `Cc1cc(-c2nc3c(Cl)cc(Cl)cc3s2)c2ncn(C)c(=O)c2c1`, the IC50 came out at 2.62 µM.

As for `Cc1cc(-c2nc3c(Cl)cc4c(c3s2)OCCO4)c2ncn(C)c(=O)c2c1`, the concentration for half-maximal inhibition (IC50) stood at 5.57 µM.

For the molecule `Cc1cc(-c2nc3c(Cl)cc(OCCNC(=O)OC(C)(C)C)cc3s2)c2ncn(C)c(=O)c2c1`, the IC50 was 2.07 µM.

With `COc1cc(Cl)c2nc(-c3cccc4c(=O)n(C)cnc34)sc2c1`, the IC50 came to 6.78 µM.

Regarding `CCn1cnc2c(-c3nc4c(Cl)cc(OC)cc4s3)cc(C)cc2c1=O`, the IC50 is 1.85 µM.

Consider `COc1cc(Cl)c2nc(-c3cc(C)cc4c(=O)n(C(C)C)cnc34)sc2c1`, for which the IC50 was found to be 9.77 µM.

Consider `COCn1cnc2c(-c3nc4c(Cl)cc(OC)cc4s3)cc(C)cc2c1=O`, for which the IC50 turned out to be 1 µM.

`COc1cc(Cl)c2nc(-c3cc(C)cc4c(=O)n(Cc5ccccc5)cnc34)sc2c1`: the IC50 was > 10 µM.

With `CCCCc1cc(-c2nc3c(Cl)cc(OC)cc3s2)c2ncn(C)c(=O)c2c1`, the IC50 was 1.38 µM.

As to `COc1cc(Cl)c2nc(-c3cc(C)cc4c(=O)n(C)c(C)nc34)sc2c1`, the IC50 came to 2.09 µM.

Take `COc1cc(Cl)c2nc(-c3cc(C)cc4c(=O)n(C)c(C(C)C)nc34)sc2c1`: the IC50 was > 10 µM.

As to `COc1cc(F)c2nc(-c3cccc4c(=O)n(C)cnc34)sc2c1`, the IC50 stood at 5.34 µM.

As for `CCn1cnc2c(-c3nc4c(F)cc(OC)cc4s3)cc(C)cc2c1=O`, the IC50 was 9.95 µM.

Consider `COc1cc(F)c2nc(-c3cc(C)cc4c(=O)n(C(C)C)cnc34)sc2c1`, for which the IC50 was determined as 6.74 µM.

For the molecule `C#CCn1cnc2c(-c3nc4c(F)cc(OC)cc4s3)cc(C)cc2c1=O`, the IC50 amounted to 4.2 µM.

As for `COc1cc(F)c2nc(-c3cc(C)cc4c(=O)n(C)c(C)nc34)sc2c1`, the half-maximal inhibitory concentration (IC50) worked out at 5.45 µM.

As to `Cn1cnc2c(-c3nc4c(s3)CCCC4)cccc2c1=O`, the IC50 stood at 2.61 µM.

In the case of `Cc1cc(-c2nc3c(s2)CCCC3)c2nc[nH]c(=O)c2c1`, the IC50 was 1.38 µM.

`CCn1cnc2c(-c3nc4c(s3)CCCC4)cc(C)cc2c1=O`: the IC50 stood at 3.74 µM.

On to `Cc1cc(-c2nc3c(s2)CCCC3)c2ncn(C(C)C)c(=O)c2c1`, for which the IC50 is > 10 µM.

As for `COCn1cnc2c(-c3nc4c(s3)CCCC4)cc(C)cc2c1=O`, the IC50 came to 2.32 µM.

As for `CCOCn1cnc2c(-c3nc4c(s3)CCCC4)cc(C)cc2c1=O`, the IC50 is 4.77 µM.

As to `CCc1cc(-c2nc3c(s2)CCCC3)c2ncn(C)c(=O)c2c1`, the IC50 was determined as 3.54 µM.

Take `CCc1cc(-c2nc3c(s2)CCCC3)c2ncn(CC)c(=O)c2c1`: the IC50 was > 10 µM.

On to `CCCCc1cc(-c2nc3c(s2)CCCC3)c2ncn(C)c(=O)c2c1`, for which the IC50 is 7.04 µM.

On to `CCCCc1cc(-c2nc3c(s2)CCCC3)c2ncn(CC)c(=O)c2c1`, for which the IC50 was 6.28 µM.

Regarding `Cc1cc(-c2nc3c(s2)CCCC3)c2nc(C)n(C)c(=O)c2c1`, the IC50 is 8.21 µM.

With `Cc1cc(-c2nc3c(Cl)cc(OCCN)cc3s2)c2ncn(C)c(=O)c2c1`, the IC50 is 3.02 µM.

For `Cc1cc(-c2nc3c(Cl)cc(OCCNS(C)(=O)=O)cc3s2)c2ncn(C)c(=O)c2c1`, the 50% inhibitory concentration (IC50) is > 10 µM.

For `Cc1cc(-c2nc3c(Cl)cc(OCCNS(=O)(=O)c4ccccc4)cc3s2)c2ncn(C)c(=O)c2c1`, the IC50 came out at 2.52 µM.

With `Cc1ccc(S(=O)(=O)NCCOc2cc(Cl)c3nc(-c4cc(C)cc5c(=O)n(C)cnc45)sc3c2)cc1`, the IC50 is 0.52 µM.

As for `Cc1cc(-c2nc3c(Cl)cc(OCCNS(=O)(=O)c4ccc(Cl)cc4)cc3s2)c2ncn(C)c(=O)c2c1`, the IC50 was 1.04 µM.

Turning to `Cc1cc(-c2nc3c(Cl)cc(OCCNS(=O)(=O)c4ccc(F)cc4)cc3s2)c2ncn(C)c(=O)c2c1`, the 50% inhibitory concentration (IC50) worked out at 8.22 µM.

Regarding `Cc1cc(-c2nc3c(Cl)cc(OCCNS(=O)(=O)c4ccc(Cl)cc4Cl)cc3s2)c2ncn(C)c(=O)c2c1`, the IC50 was determined as 0.95 µM.

In the case of `Cc1cc(-c2nc3c(Cl)cc(OCCNC(=O)c4ccccc4)cc3s2)c2ncn(C)c(=O)c2c1`, the IC50 was > 10 µM.

Turning to `Cc1cc(-c2nc3c(Cl)cc(OCCNS(=O)(=O)c4ccc(-c5ccccc5)cc4)cc3s2)c2ncn(C)c(=O)c2c1`, the half-maximal inhibitory concentration (IC50) was > 10 µM.

`Cc1cn2nc(-c3cccc4ccoc34)sc2n1`: the IC50 turned out to be 7.61 µM.

Consider `COCc1cc2cc(C)cc(-c3nn4ccnc4s3)c2o1`, for which the IC50 worked out at 3.44 µM.

Take `COCc1cc2cc(C)cc(-c3nn4cc(C)nc4s3)c2o1`: the IC50 amounted to 4.82 µM.

For `COCc1cc2ccc(OC)c(-c3nn4ccnc4s3)c2o1`, the 50% inhibitory concentration (IC50) was 10 µM.

Regarding `COCc1cc2ccc(OC)c(-c3nn4cc(C)nc4s3)c2o1`, the IC50 came to 10 µM.

For `CCc1cc(-c2nc3c(Cl)cc(OC)cc3s2)c2ncn(C)c(=O)c2c1`, the IC50 worked out at 0.16 µM.

On to `CSc1nn2cc(-c3cc4ccccc4o3)nc2s1` [US9862730, Example 1], for which the IC50 was found to be 0.94 µM.

`Cc1nn2cc(-c3cc4ccccc4o3)nc2s1` [US9862730, Example 41]: the IC50 is 1.82 µM.

The next assay in a line: Antagonist activity at PAR4 in human platelet-rich plasma assessed as inhibition of PAR4 AP AYPGKF-NH2-induced platelet aggregation by photo-turbidimetry assay.
`COc1cc(Cl)c2nc(-c3cc(C)cc4c(=O)n(C)cnc34)sc2c1`: the IC50 turned out to be 0.02 µM.

As for `Cc1cc(-c2ccc(Cl)cc2Cl)c2ncn(C)c(=O)c2c1`, the IC50 stood at 0.174 µM.

As for `COc1cc(F)c2nc(-c3cc(C)cc4c(=O)n(C)cnc34)sc2c1`, the IC50 was found to be 0.078 µM.

Regarding `Cc1cc(-c2nc3c(s2)CCCC3)c2ncn(C)c(=O)c2c1`, the IC50 worked out at 0.029 µM.

As for `CCOCn1cnc2c(-c3nc4c(Cl)cc(OC)cc4s3)cc(C)cc2c1=O`, the concentration for half-maximal inhibition (IC50) was determined as 0.107 µM.

Regarding `Cc1cc(-c2nc3c(Cl)cc(OCCNS(=O)(=O)c4ccc(C(F)(F)F)cc4)cc3s2)c2ncn(C)c(=O)c2c1`, the IC50 was 0.0066 µM.

Regarding `CCc1cc(-c2nc3c(Cl)cc(OC)cc3s2)c2ncn(C)c(=O)c2c1`, the half-maximal inhibitory concentration (IC50) was 0.04 µM.
